# Data taken from ChEMBL document CHEMBL1201862, “PubChem BioAssay data set” (2004).
# Calls of active or inactive are those of the source.
# Columns and labels:
# [1] = A cytotoxicity screen of small molecule inhibitors of the PhoP region in Salmonella typhi identified in the primary screen. [Related pubchem assays: 1850, 1864, 1985 ]; assay type: functional
# [2] = molecular target: T1, Short transient receptor potential channel 4 (Mus musculus, UniProt Q9QUQ5); test: mouse TRPC4 channel activators, dose response, cell-based, HEK293 TRPC4/mu-opioid, Fluo-4 calcium (AID 434937); assay type: functional
# T1 sequence (Q9QUQ5 whole entry): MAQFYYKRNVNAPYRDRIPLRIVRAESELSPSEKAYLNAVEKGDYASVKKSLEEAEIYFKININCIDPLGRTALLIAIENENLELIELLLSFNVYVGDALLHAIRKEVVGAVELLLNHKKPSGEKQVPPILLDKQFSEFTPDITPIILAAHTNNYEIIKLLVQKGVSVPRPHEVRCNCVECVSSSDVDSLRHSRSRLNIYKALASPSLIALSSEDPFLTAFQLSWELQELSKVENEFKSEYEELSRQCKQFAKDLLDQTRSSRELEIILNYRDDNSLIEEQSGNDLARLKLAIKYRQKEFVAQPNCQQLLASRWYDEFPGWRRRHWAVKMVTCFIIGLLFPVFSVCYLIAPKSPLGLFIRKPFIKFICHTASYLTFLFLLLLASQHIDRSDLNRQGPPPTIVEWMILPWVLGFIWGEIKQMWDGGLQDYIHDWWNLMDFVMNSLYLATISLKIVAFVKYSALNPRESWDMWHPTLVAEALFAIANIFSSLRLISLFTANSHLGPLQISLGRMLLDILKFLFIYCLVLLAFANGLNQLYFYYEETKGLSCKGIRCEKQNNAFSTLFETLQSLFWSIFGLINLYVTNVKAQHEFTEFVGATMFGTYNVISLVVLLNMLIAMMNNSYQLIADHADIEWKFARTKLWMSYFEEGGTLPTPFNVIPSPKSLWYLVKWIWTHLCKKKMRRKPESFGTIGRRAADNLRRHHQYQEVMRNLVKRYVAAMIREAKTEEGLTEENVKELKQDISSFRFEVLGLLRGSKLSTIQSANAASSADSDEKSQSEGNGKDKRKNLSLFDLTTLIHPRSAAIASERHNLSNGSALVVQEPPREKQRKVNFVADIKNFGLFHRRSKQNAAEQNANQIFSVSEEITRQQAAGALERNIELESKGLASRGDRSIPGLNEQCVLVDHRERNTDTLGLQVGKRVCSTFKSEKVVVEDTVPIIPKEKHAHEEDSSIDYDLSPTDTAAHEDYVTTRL
# cells [3] = test: cells
# [4] = HEp-2 cell cytotoxicity, dose response, cytotoxicity control for RSV inhibitor project, HTS (AID 2410); assay type: functional; settings: human respiratory syncytial virus
# [5] = molecular target: Inward rectifier potassium channel 2 (Mus musculus, UniProt P35561); test: Manual electrophysiological patch clamp assay for SAR compounds that inhibit/block inward-rectifying potassium ion channel Kir2.1. [Related pubchem assays: 1843 (Summary assay for Kir2.1 inhibitor assays.), 1672 (Primary HTS of 305616 compounds where 2592 were identified as active.)]; assay type: functional
# Sequence of Inward rectifier potassium channel 2 (P35561 whole entry): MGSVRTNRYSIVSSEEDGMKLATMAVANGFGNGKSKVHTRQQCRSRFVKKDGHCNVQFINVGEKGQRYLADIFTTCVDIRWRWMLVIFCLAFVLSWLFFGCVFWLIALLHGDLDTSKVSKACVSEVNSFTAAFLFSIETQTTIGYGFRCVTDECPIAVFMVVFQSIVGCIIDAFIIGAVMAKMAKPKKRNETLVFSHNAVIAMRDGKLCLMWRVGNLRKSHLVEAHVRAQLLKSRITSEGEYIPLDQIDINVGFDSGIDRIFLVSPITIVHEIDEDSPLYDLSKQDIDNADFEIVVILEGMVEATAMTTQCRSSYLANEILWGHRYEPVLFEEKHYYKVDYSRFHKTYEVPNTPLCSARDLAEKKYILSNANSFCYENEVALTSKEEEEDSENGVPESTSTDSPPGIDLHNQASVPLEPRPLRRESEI
# NADPH oxidase 1 = molecular target: T2, NADPH oxidase 1 (Homo sapiens, UniProt Q9Y5S8); assay type: functional, cell-based;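 further: Cell-based assay with luminescence read-out, IC50 derived from inhibitor dose-response curves; intracellular ROS from endogenous NOX1 in intact HT29 colon cancer cells; potency of inhibitors that lower the ROS luminescence signal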
# T2 sequence (Q9Y5S8 whole entry): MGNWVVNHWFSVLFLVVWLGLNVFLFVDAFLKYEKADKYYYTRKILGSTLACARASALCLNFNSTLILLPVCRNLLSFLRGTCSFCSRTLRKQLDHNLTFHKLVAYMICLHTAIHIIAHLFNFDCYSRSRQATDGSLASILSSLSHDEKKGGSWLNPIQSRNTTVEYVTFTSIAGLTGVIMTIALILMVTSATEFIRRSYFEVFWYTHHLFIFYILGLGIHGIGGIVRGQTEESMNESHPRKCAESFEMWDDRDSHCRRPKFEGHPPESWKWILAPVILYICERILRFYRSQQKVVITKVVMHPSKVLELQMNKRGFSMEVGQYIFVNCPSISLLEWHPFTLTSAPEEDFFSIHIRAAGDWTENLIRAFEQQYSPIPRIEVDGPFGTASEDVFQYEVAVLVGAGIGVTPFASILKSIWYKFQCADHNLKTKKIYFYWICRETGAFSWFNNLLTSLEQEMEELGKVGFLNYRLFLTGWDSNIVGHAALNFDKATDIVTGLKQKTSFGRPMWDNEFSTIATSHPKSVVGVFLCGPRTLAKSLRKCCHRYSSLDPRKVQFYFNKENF
# Estrogen receptor = molecular target: T3, Estrogen receptor (Homo sapiens, UniProt P03372); test: potentiators of ERα–SRC-1 coactivator binding, dose response, biochemical, TR-FRET, ERα LBD (AID 737)
# T3 sequence (P03372 whole entry): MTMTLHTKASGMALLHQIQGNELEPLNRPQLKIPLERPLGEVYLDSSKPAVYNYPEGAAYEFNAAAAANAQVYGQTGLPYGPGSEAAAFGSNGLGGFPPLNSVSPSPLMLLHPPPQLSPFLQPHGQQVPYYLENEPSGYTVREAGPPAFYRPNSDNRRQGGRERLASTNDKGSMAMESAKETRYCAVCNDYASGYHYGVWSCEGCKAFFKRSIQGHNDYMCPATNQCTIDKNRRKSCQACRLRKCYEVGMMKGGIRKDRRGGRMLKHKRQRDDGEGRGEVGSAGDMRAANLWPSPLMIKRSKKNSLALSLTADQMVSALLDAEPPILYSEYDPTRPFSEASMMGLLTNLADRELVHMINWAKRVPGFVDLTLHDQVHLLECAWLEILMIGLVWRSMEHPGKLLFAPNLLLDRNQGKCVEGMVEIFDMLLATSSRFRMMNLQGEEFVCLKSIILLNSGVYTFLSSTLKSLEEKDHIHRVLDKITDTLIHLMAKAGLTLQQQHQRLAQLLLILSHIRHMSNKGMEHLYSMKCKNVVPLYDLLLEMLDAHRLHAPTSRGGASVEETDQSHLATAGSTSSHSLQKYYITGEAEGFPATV
# HEK293 = test: Fluorescence-based counterscreen for potentiators or agonists of NPY-Y2: cell-based high-throughput dose response assay to identify inhibitors of cyclic nucleotide gated ion channel (CNGC) activity. In this assay, the parental HEK293 cell line transfected with a cyclic-nucleotide gated ion channel (CNGC)-based cAMP sensor is used to measure inhibition of isoproterenol-induced CNGC activity by test compound.; assay type: functional; settings: Homo sapiens;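 further: stimulus is 1 µM isoproterenol at EC100 plus PDE inhibitor Ro 20-1724 at 25 µM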
# [6] = molecular target: T4, Neuropeptide Y receptor type 2 (Homo sapiens, UniProt P49146); test: Fluorescence-based cell-based high-throughput dose response assay for agonists of NPY-Y2. [Related pubchem assays: 1703 (Screening assay (CNGC inhibitors).), 1359 (Screening assay (NPY-Y2 potentiators or agonists).), 1304 (Screening assay (NPY-Y1 potentiators or agonists).), 1710 (Screening assay (NPY-Y2 agonists).), 1791 (Summary AID.)]; assay type: functional
# T4 sequence (P49146 whole entry): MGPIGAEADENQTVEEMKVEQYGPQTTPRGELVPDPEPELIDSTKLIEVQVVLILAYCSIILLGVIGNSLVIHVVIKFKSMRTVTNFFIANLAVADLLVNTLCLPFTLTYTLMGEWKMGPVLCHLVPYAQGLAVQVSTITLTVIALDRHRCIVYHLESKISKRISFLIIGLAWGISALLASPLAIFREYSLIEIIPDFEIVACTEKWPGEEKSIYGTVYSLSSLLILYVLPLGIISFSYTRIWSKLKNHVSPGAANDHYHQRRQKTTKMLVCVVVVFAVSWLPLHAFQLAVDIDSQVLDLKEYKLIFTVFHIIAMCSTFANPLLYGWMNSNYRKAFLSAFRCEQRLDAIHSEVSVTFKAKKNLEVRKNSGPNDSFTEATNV
# [7] = molecular target: T5, Neuropeptide Y receptor type 1 (Homo sapiens, UniProt P25929); test: Fluorescence-based counterscreen for agonists of NPY-Y2: cell-based high-throughput dose response assay for agonists of NPY-Y1.; assay type: functional
# T5 sequence (P25929 whole entry): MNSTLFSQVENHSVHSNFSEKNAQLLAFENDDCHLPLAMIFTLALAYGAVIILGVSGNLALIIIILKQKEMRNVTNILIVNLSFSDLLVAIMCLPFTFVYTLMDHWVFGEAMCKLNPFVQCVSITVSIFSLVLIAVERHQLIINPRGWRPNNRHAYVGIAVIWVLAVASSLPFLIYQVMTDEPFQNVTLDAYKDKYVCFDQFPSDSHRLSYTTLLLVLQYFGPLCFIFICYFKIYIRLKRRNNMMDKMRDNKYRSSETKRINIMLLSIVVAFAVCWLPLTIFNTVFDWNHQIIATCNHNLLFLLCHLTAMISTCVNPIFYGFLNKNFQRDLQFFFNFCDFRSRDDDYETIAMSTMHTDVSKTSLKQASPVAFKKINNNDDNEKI
# cells [8] = assay type: functional
# Cytochrome P450 2C19 = Cytochrome P450 2C19 (Homo sapiens, UniProt P33261); test: Cytochrome panel assay with activity outcomes. Panel member name: p450-cyp2c19 Compounds with AC50 equal or less than 10 uM are considered active; assay type: functional; settings: read-out: AC50
# Sequence of Cytochrome P450 2C19 (P33261 whole entry): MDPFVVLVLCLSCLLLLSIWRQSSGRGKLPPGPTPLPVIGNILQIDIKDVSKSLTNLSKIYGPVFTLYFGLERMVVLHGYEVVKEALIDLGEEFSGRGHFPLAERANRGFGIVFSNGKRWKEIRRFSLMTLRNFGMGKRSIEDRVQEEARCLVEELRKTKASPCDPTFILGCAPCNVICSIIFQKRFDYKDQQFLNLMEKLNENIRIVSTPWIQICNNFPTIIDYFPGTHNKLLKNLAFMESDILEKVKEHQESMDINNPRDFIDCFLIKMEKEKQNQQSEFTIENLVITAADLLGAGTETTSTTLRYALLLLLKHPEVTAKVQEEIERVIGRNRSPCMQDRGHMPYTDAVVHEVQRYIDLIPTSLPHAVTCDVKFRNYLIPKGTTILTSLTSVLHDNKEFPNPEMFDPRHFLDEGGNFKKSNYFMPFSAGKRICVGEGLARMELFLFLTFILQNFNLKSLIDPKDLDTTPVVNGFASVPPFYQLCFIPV
# Cytochrome P450 2C9 = Cytochrome P450 2C9 (Homo sapiens, UniProt P11712)
# Sequence of Cytochrome P450 2C9 (P11712 whole entry): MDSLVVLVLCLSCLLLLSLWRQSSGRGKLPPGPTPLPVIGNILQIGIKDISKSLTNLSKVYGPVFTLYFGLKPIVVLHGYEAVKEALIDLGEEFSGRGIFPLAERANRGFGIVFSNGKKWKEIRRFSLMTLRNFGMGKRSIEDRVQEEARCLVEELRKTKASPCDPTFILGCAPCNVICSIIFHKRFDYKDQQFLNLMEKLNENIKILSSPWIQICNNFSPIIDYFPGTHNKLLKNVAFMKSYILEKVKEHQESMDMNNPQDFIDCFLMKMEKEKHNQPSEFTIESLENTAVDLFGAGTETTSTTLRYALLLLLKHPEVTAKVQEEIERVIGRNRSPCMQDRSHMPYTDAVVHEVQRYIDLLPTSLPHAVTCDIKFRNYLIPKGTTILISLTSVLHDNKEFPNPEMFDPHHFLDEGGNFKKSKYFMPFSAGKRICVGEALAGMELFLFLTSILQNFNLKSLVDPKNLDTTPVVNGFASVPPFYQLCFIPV
structure (smiles),measurement,setting,value
CN(CCOc1ccc(Cl)cc1)CC(O)c1ccccc1 (stereo not given),EC50,[1],> 50 µM (active)
same,EC50,[2],1.88 µM (active)
O=C(CCn1c(=O)c2sccc2n(Cc2cc(=O)n3ccccc3n2)c1=O)NCc1ccco1,IC50,cells [3],24.4 µM (active)
CCOc1ccc(CNC(=O)c2cc3oc4ccccc4c3n2C)cc1,CC50,[4],39 µM (active)
same,IC50,cells [3],4.82 µM (active)
COc1ccc(CNCc2ccc(OC)cc2)cc1,IC50,[5],1.88 µM (active)
O=C1Nc2ccccc2/C1=N/NC(=S)Nc1ccccc1,IC50,NADPH oxidase 1,> 17 µM (not active)
COc1cc(NC(=O)c2cccs2)c(C(=O)OCC(=O)NC(=O)NCc2ccccc2)cc1OC,EC50,Estrogen receptor,1.58 µM (active)
OC1(c2ccc(OC(F)F)cc2)CS/C(=N\c2cccnc2)N1Cc1ccco1 (stereo not given),EC50,HEK293,> 35.4 µM (not active)
same,EC50,[6],> 35.4 µM (not active)
same,EC50,[7],> 35.4 µM (not active)
CC(=O)/C=C1\Nc2ccccc2OC1=O,EC50,[1],> 50 µM (active)
same,IC50,cells [8],5.75 µM (active)
same,AC50,Cytochrome P450 2C19,7.94 µM (inconclusive)
same,AC50,Cytochrome P450 2C9,2.24 µM (inconclusive)
